# Experimental data reported in patent US6346514B1, “Pharmaceutical lysine-containing polypeptide compositions and methods of use thereof” (priority 1991, dated 2002).
# How the values were obtained:
# [1] = test system: methicillin resistant Staphylococcus aureus; conditions: methicillin-resistant S. aureus (MR); s.c. in the hour subsequent to inoculation; previous studies; cited from earlier work
# [2] = test system: methicillin-resistant S. aureus; conditions: S. aureus (MR); s.c. in the hour subsequent to inoculation; cited from earlier work
# microbial growth = experiment: Bacterial culture experiments with EK; format: cell-based; conditions: concentrations exceeding 1000 times the administered dose to animals
# [3] = test system: methicillin resistant Staphylococcus aureus; experiment: Survival of mice inoculated with 10xLD50 S. aureus, EK pretreatment with or without Ampicillin; format: in vivo
# Experimental: Animals were inoculated intraperitoneally with 10×LD50 of a Staphylococcus aureus suspended in brain-heart infusion broth containing 5 percent mucin. […] If significant prevention of mortality (>50 percent survival) was observed, the minimum effective dose (MED) was determined.
# Two control experiments were initially conducted. […] No antibiotic was administered to this group. The number of survivors at 72 hours was determined. […] The number of survivors at 72 hours was recorded.
# Survival statistics were determined over the periods of 12, 24, 36, 48, and 72 hours. […] Survival statistics were determined over the periods 12, 23,36, 48, and 72 hours. FIG. 1 illustrates the experimental protocol.
# [4] = 12 HOURS after inoculation, EK 10 mcg/kg
# [5] = 12 HOURS after inoculation, EK 100 mcg/kg
# [6] = 12 HOURS after inoculation, EK 1000 mcg/kg
# [7] = 24 HOURS after inoculation, EK 10 mcg/kg
# [8] = 24 HOURS after inoculation, EK 100 mcg/kg
# [9] = 24 HOURS after inoculation, EK 1000 mcg/kg
# [10] = 36 HOURS after inoculation, EK 10 mcg/kg
# [11] = 36 HOURS after inoculation, EK 100 mcg/kg
# [12] = 36 HOURS after inoculation, EK 1000 mcg/kg
# [13] = 48 HOURS after inoculation, EK 10 mcg/kg
# [14] = 48 HOURS after inoculation, EK 100 mcg/kg
# [15] = 48 HOURS after inoculation, EK 1000 mcg/kg
# [16] = 72 HOURS after inoculation, EK 10 mcg/kg
# [17] = 72 HOURS after inoculation, EK 100 mcg/kg
# [18] = 72 HOURS after inoculation, EK 1000 mcg/kg
compound,measurement,setting,value
"CC1(C)S[C@@H]2[C@H](NC(=O)[C@H](N)c3ccccc3)C(=O)N2[C@H]1C(=O)O [Amp, Ampicillin]",MED (minimum effective dose),[1],greater than 100 mg/kg
same,MED (minimum effective dose),[2],greater than 100 mg/kg
Glu-Lys [EK],activity on microbial growth,microbial growth,no inhibitory nor suppressive activity
same,Deaths,[3]; [4],0
same,Survival,[3]; [4],100.00%
same,Survivors,[3]; [4],18
same,Deaths,[3]; [5],2
same,Survival,[3]; [5],88.89%
same,Survivors,[3]; [5],16
same,Deaths,[3]; [6],1
same,Survival,[3]; [6],94.44%
same,Survivors,[3]; [6],17
same,Deaths,[3]; [7],5
same,Survival,[3]; [7],72.22%
same,Survivors,[3]; [7],13
same,Deaths,[3]; [8],5
same,Survival,[3]; [8],72.22%
same,Survivors,[3]; [8],13
same,Deaths,[3]; [9],1
same,Survival,[3]; [9],94.44%
same,Survivors,[3]; [9],17
same,Deaths,[3]; [10],9
same,Survival,[3]; [10],50.00%
same,Survivors,[3]; [10],9
same,Deaths,[3]; [11],9
same,Survival,[3]; [11],50.00%
same,Survivors,[3]; [11],9
same,Deaths,[3]; [12],4
same,Survival,[3]; [12],77.78%
same,Survivors,[3]; [12],14
same,Deaths,[3]; [13],13
same,Survivors,[3]; [13],5
same,Deaths,[3]; [14],13
same,Survivors,[3]; [14],5
same,Deaths,[3]; [15],10
same,Survival,[3]; [15],44.44%
same,Survivors,[3]; [15],8
same,Deaths,[3]; [16],13
same,Survivors,[3]; [16],5
same,Deaths,[3]; [17],13
same,Survivors,[3]; [17],5
same,Deaths,[3]; [18],11
same,Survival,[3]; [18],38.89%
same,Survivors,[3]; [18],7
same,survival after normally lethal i.p. dose of S. aureus,[3]; EK pretreatment,dramatic improvement in survival
same,Survival,"[3]; at 36 hours, across EK dose groups",≤ 78%
same,Survival,"[3]; by 72 hours, across EK dose groups",at least 27%
